# B1: Flag-Tag peptide (peptide)
# peptide: DYDKDDDK
# Assays:
# [1] = system: HEK293T cells; test: Inhibitor pretreatment before Bodipy TR-scEV uptake, flow cytometry; format: cell-based, human; conditions: for Bodipy TR fluorescence in recipient cells (scEV uptake) compared to sham / +scProtein fluorescence levels compared to sham: 1 h pretreatment, 24 h Bodipy TR-scEVs, CHL 10 μM, Bort 5 μM; for Bodipy TR fluorescence in recipient cells (scEV uptake) compared to sham: ConA 200 nM, Baf 200 nM
# Procedure: For inhibitor treatment before scEV uptake, HEK293T cells (50,000 cells per well) were seeded in 24-well culture plates (Falcon) for 24 h in DMEM with serum. The cells were then pre-incubated with the inhibitors in Optimem without serum. […] The labelled EVs (10^7-10^8 particles) were added each well for 24 h in the presence of the indicated inhibitors. Following incubation, cells were trypsinized and analyzed based on scProtein and Bodipy TR fluorescence on a Beckman SORP 5 Laser BD Fortessa Flow Cytometer in the MGH core facility.
# FLOW CYTOMETRY. Flow cytometric analysis was performed on the Beckman SORP 5 Laser BD Fortessa Flow Cytometer in the MGH core facility. Forward and side scatter signals were used to distinguish live cells from polystyrene beads. Proper gating was performed to identify positive fluorescent signals compared to non-stained or single stained controls.
# [2] = molecular target: Flag-Tag affinity beads (antibody based magnetic beads); test: elution of bead-bound NoMi-EVs with free Flag peptide, nanoluciferase bioluminescence read-out
Molecule,Bodipy TR fluorescence in recipient cells (scEV uptake) compared to sham [1],+scProtein fluorescence levels compared to sham [1],+scProtein fluorescence in combination with Baf and ConA ([1]; Bort combined with Baf or ConA),percent of EVs recovered from the beads by peptide elution [2] [%]
CO/C1=C\C(C)=C\[C@@H](C)[C@@H](O)[C@@H](C)C/C(C)=C/C=C/[C@H](OC)[C@@H]([C@@H](C)[C@@H](O)[C@H](C)[C@@]2(O)C[C@@H](O)[C@H](C)[C@@H](C(C)C)O2)OC1=O [Bafilomycin A1],No significant decrease,–,–,–
CC(C)C[C@H](NC(=O)[C@H](Cc1ccccc1)NC(=O)c1cnccn1)B(O)O [Bortezomib],increased scEV uptake,increase,increased,–
CCN(CC)CCCC(C)Nc1ccnc2cc(Cl)ccc12 (centres unmarked) [Chloroquine],significantly increase,increase,–,–
C/C=C/[C@H]1O[C@@](O)([C@@H](C)[C@H](O)[C@H](C)[C@H]2OC(=O)/C(OC)=C/C(C)=C/[C@@H](C)[C@@H](O)[C@@H](CC)[C@@H](O)[C@H](C)C/C(C)=C/C=C/[C@@H]2OC)C[C@@H](O[C@H]2C[C@@H](O)[C@H](OC(N)=O)[C@@H](C)O2)[C@@H]1C [concanamycin A],No significant decrease,–,–,–
B1,–,–,–,75

# Source: patent US20240183842A1, “Supercharged Biovesicles and Methods of Use Thereof” (The General Hospital Corporation, priority 2021, published 2024)
